Source: BindingDB's records for doi:10.1021/jm00108a008 (University of Minnesota, 1991)

Key:
[1] = Binding affinity against Opioid receptor delta 1 was measured in the guinea pig brain membranes using [3H]DADLE in the presence of 1 uM unlabeled DAMGO as radioligand
[2] = as above; remark: listed apart in the source

Structure (SMILES) | Ki [1] [nM] | Ki [2] [nM]
Oc1ccc2c3c1O[C@H]1c4sc5c(c4C[C@@]4(O)C(C2)N(CC2CC2)CC[C@]314)C[C@@]1(O)C2Cc3ccc(O)c4c3[C@@]1(CCN2CC1CC1)[C@H]5O4 [bis(4-cyclopropylmethyl-12-oxa-4-azapentacyclo[9.6.1.01,13.05,17.07,18]octadeca-7(18),8,10,14-tetraene-10,17-diol)thiphene] | 77 | –
Oc1ccc2c3c1O[C@H]1C4=C(C[C@@]5(O)C(C2)N(CC2CC2)CC[C@]315)C(c1ccccc1)C1=C(O4)[C@@H]2Oc3c(O)ccc4c3[C@@]23CCN(CC2CC2)C(C4)[C@]3(O)C1 (some centres not stated) [bis(4-cyclopropylmethyl-12-oxa-4-azapentacyclo[9.6.1.01,13.05,17.07,18]octadeca-7(18),8,10,14-tetraene-10,17-diol)4-phenyl-4H-pyran] | – | 10
